Assay results published in US20190029257A1, “APPLICATION FOR HERBICIDE-TOLERANT PROTEIN” (BEIJING DABEINONG TECHNOLOGY GROUP CO., LTD., priority 2016, published 2019).

Experiments:
Format in all cases: in vivo
[1] = test system: At chloroplastic ALT-1-01 T1 plants; assay: Herbicide tolerance of Arabidopsis thaliana T1 plants (spray, resistance classes counted); settings: 18 g ai/ha (1x Hal.); number of plants 14 days after spraying; Total 31
From the text: (§1) T1 transformants were initially selected from the background of untransformed seeds using a glufosinate selection scheme. About 40000 T1 seeds were screened, and 380 T1 positive transformants (PAT gene) were identified with a transformation efficiency of about 0.95%. The plants that were transformed with the recombinant expression vector DBN100632 were Arabidopsis thaliana plants having an ALT-1-01 nucleotide sequence located in the cytoplasm introduced (At cytoplasmic ALT-1-01), and the plants that were transformed with the recombinant expression vector DBN100631 were Arabidopsis thaliana plants having an ALT-1-01 nucleotide sequence located in the chloroplast introduced (At chloroplastic ALT-1-01); the plants that were transformed with the recombinant expression vector DBN100634 were Arabidopsis thaliana plants having an ALT-2-01 nucleotide sequence located in the cytoplasm introduced (At cytoplasmic ALT-2-01), and the plants that were transformed with the recombinant expression vector DBN100633 were Arabidopsis thaliana plants having an ALT-2-01 nucleotide sequence located in the chloroplast introduced (At chloroplastic ALT-2-01); and the plants that were transformed with the recombinant expression vector DBN100636 were Arabidopsis thaliana plants having an ALT-3-01 nucleotide sequence located in the cytoplasm introduced (At cytoplasmic ALT-3-01), and the plants that were transformed with the recombinant expression vector DBN100635 were Arabidopsis thaliana plants having an ALT-3-01 nucleotide sequence located in the chloroplast introduced (At chloroplastic ALT-3-01). The herbicide tolerance effects of At cytoplasmic ALT-1-01 T1 plants, At chloroplastic ALT-1-01 T1 plants, At cytoplasmic ALT-2-01 T1 plants, At chloroplastic ALT-2-01 T1 plants, At cytoplasmic ALT-3-01 T1 plants, At chloroplastic ALT-3-01 T1 plants and wild-type Arabidopsis thaliana plants on halosulfuron-methyl were detected (14 days after sowing), respectively.
(§2) […] Plants were counted for the resistance situations 14 days after spraying: those having a consistent growth status with the blank solvent (water) group after 14 days were classified as highly resistant plants, those having a bolting height less than ½ of that of the blank solvent (water) group after 14 days were classified as moderately resistant plants, those still not capable of bolting after 14 days were classified as poorly resistant plants, and those dead after 14 days were classified as non-resistant plants. Since each Arabidopsis thaliana T1 plant was an independent transformation event, a significant difference in individual T1 responses could be expected at a given dose.
as §2, with “situation” for “situations”

[2] = test system: At chloroplastic ALT-2-01 T1 plants; assay: as above; settings: 18 g ai/ha (1x Hal.); number of plants 14 days after spraying; Total 31
From the text: as §1, §2
as §2, with “situation” for “situations”

[3] = test system: At chloroplastic ALT-3-01 T1 plants; assay: as above; settings: 18 g ai/ha (1x Hal.); number of plants 14 days after spraying; Total 30
From the text: as §1, §2
as §2, with “situation” for “situations”

[4] = test system: At cytoplasmic ALT-1-01 T1 plants; assay: as above; settings: 18 g ai/ha (1x Hal.); number of plants 14 days after spraying; Total 31
From the text: as §1, §2
as §2, with “situation” for “situations”

[5] = test system: At cytoplasmic ALT-2-01 T1 plants; assay: as above; settings: 18 g ai/ha (1x Hal.); number of plants 14 days after spraying; Total 28
From the text: as §1, §2
as §2, with “situation” for “situations”

[6] = test system: At cytoplasmic ALT-3-01 T1 plants; assay: as above; settings: 18 g ai/ha (1x Hal.); number of plants 14 days after spraying; Total 28
From the text: as §1, §2
as §2, with “situation” for “situations”

[7] = test system: wild-type maize plants (CK2); assay: Halosulfuron-methyl tolerance of maize plants (damage degree); parameters: Average damage % 3 DAT / Average damage % 7 DAT / Average damage % 14 DAT / Average damage % 21 DAT: dose or concentration left out as unconfirmed
Experimental: The herbicide tolerance effects of Zm cytoplasmic ALT-1-02 maize plants, Zm chloroplastic ALT-1-02 maize plants, Zm cytoplasmic ALT-2-02 maize plants, Zm chloroplastic ALT-2-02 maize plants, Zm cytoplasmic ALT-3-02 maize plants, Zm chloroplastic ALT-3-02 maize plants and wild-type maize plants on halosulfuron-methyl were detected (at V3-V4 stage), respectively.
[…] The damage degree caused by the herbicide was measured for each plant according to the plant growth status 3 days after spraying (3 DAT), 7 days after spraying (7 DAT), 14 days after spraying (14 DAT) and 21 days after spraying (21 DAT), respectively: considering a growth status equivalent to that of the untreated plants as having a damage degree of 0%; considering conditions of leaves being partially chlorotic and yellow but substantially not affecting the plant normal growth as having a damage degree of 50%; and considering the whole plant being purple and dying as having a damage degree of 100%. There were 2 strains in Zm cytoplasmic ALT-1-02 maize plants in total (S13 and S14), 2 strains in Zm chloroplastic ALT-1-02 maize plants in total (S15 and S16), 2 strains in Zm cytoplasmic ALT-2-02 maize plants in total (S17 and S18), 2 strains in Zm chloroplastic ALT-2-02 maize plants in total (S19 and S20), 2 strains in Zm cytoplasmic ALT-3-02 maize plants in total (S21 and S22), 2 strains in Zm chloroplastic ALT-3-02 maize plants in total (S23 and S24), and 1 strain in wild- type maize plants (CK2) in total; and 10-15 plants were selected from each strain and tested.

COC(=O)c1c(Cl)nn(C)c1S(=O)(=O)NC(=O)Nc1nc(OC)cc(OC)n1 [halosulfuron-methyl, 3-chlorine-5-(4,6-dimethoxypyrimidine-2-aminocarbonylaminosulphonyl)-1-methylpyrazole-4-carboxylic acid methyl ester] was tested, and the Highly resistant [1] was 1, the Moderately resistant [1] was 2 and the Non-resistant [1] was 7. For the same compound, the Poorly resistant [1] was 5, the Highly resistant [2] was 1 and the Moderately resistant [2] was 4. For the same compound, the Non-resistant [2] was 5, the Poorly resistant [2] was 7 and the Highly resistant [3] was 1. The Moderately resistant [3] was 6, the Non-resistant [3] was 5 and the Poorly resistant [3] was 5. The Moderately resistant [4] was 6, the Non-resistant [4] was 15 and the Poorly resistant [4] was 5. It also gave a Highly resistant [5] of 1, a Moderately resistant [5] of 6 and a Non-resistant [5] of 5. It also gave a Poorly resistant [5] of 4, a Highly resistant [6] of 1 and a Moderately resistant [6] of 6. For the same compound, the Non-resistant [6] was 5, the Poorly resistant [6] was 5 and the “damage to the plants” value ([7]; 36 g ai/ha, summary of Table 4) was “some slight damage”. For the same compound, the “Average damage % 3 DAT” value ([7]; strain CK2, 3 days after spraying) was 10%, the “Average damage % 7 DAT” value ([7]; strain CK2, 7 days after spraying) was 20% and the “Average damage % 14 DAT” value ([7]; strain CK2, 14 days after spraying) was 19%. For the same compound, the “Average damage % 21 DAT” value ([7]; strain CK2, 21 days after spraying) was 18%.
